Results taken from patent publication US8063225B2, “Tricyclic compound derivatives useful in the treatment of neoplastic diseases, inflammatory disorders and immunomodulatory disorders” (Chembridge Corporation, priority 2006, dated 2011).

Columns and labels:
Type in all cases: cell-based
[1] = system: KMS18; test: Cell proliferation inhibition, MTT assay, KMS18; conditions: Homo sapiens, 72 h, KMS18 multiple myeloma cells, 3-day proliferation
Text: (§1) IGF1R and other tyrosine kinase inhibitors can inhibit the proliferation of certain cancer cell lines indicating their possible therapeutic utility for treating the corresponding cancer types. Cancer cell lines of interest and control normal lines, including CHO, HEK293, BA/F3, COLO205, PC3, DU145, MCF7, Panc1, ACHN, Hep G2, H460, K562, TT, U87-MG, CAOV-3, SK-MEL5, Karpas 299 and human multiple myeloma cell lines H929, MM1s, MM1r, UTMC2, CPM2, KMS11, My5, KMS12PE, My7, JJN3, KMS18, U266, SKMM2, RPMI-8226 are plated in white, clear-bottomed 384-well cell culture plates at 2500-5000 cells per well and supplied with dilutions of tested compounds After a desired period of time (typically 3 days), the number of viable cells is quantitated by using Cell Titer-Glo Luminescent Cell Viability Assay (Promega), a cell proliferation assay system based on detection of total amount of ATP present as a measure of cell metabolic activity. The plated cells are mixed with the Cell Titer-Glo developing reagent and counted in a luminescence multiwell plate reader according to the standard manufacturer's protocol to generate IC50 curves for cell proliferation inhibition. Results are typically reported as percent of growth (% viability =(OD72h(compound)−ODday0))/(OD72h(no compound)−ODday0). Alternatively, viable cells are quantitated by using the conventional colorimetric MTT assay. The MTT assay is based on the cleavage of the yellow tetrazolium salt MTT to purple formazan crystal by metabolic active cells. The formazan is then solubilized, and the concentration determined by optical density at 570 nm. The cells plated and incubated with a compound as described above are supplemented with the solution of MTT and incubated for 2-3 hours. The growth medium is removed and dimethyl sulfoxide is added into each well to dissolve the formazan. The absorbance is measured on an ELISA plate reader with a test wavelength of 570 nm and a background subtraction wavelength of 630 nm to obtain sample signal (OD570-OD630). […] The results are reported in terms of IC50 value for a particular compound and a cell line in the standard 3-day proliferation assay using Cell Titer-Glo. […] The results are reported in terms of IC50 value for a particular compound and a cell line in the standard 3-day proliferation assay using MTT assay.

[2] = system: My7; test: Cell proliferation inhibition, MTT assay, My7; conditions: Homo sapiens, Multiple myeloma cell, 72 h, My7 multiple myeloma cells, 3-day proliferation
Text: as §1

[3] = system: JJN3; test: Cell proliferation inhibition, MTT assay, JJN3; conditions: Homo sapiens, JJN-3, 72 h, JJN3 multiple myeloma cells, 3-day proliferation
Text: as §1

[4] = system: U266; test: Cell proliferation inhibition, MTT assay, U266; conditions: Homo sapiens, U-266, 72 h, U266 multiple myeloma cells, 3-day proliferation
Text: as §1

[5] = system: KMS12PE; test: Cell proliferation inhibition, MTT assay, KMS12PE; conditions: Homo sapiens, 72 h, KMS-12PE multiple myeloma cells, 3-day proliferation
Text: as §1

[6] = system: RPMI-8226; test: Cell proliferation inhibition, MTT assay, RPMI-8226; conditions: Homo sapiens, 72 h, RPMI-8226 multiple myeloma cells, 3-day proliferation
Text: as §1

[7] = system: SKMM2; test: Cell proliferation inhibition, MTT assay, SKMM2; conditions: Homo sapiens, SK-MM-2, 72 h, SKMM2 multiple myeloma cells, 3-day proliferation
Text: as §1

[8] = system: My5; test: Cell proliferation inhibition, MTT assay, My5; conditions: Homo sapiens, Multiple myeloma cell, 72 h, My5 multiple myeloma cells, 3-day proliferation
Text: as §1

| IC50 [4] | IC50 [6] | IC50 [7] | Structure (SMILES) | IC50 [1] | IC50 [2] | IC50 [3] | IC50 [5] | IC50 [8] |
| --- | --- | --- | --- | --- | --- | --- | --- | --- |
| 1 to 5 µM | 5 to 20 µM | 5 to 20 µM | Cc1ccc(OCC(=O)CNc2cc[nH]c(=O)c2-c2nc3cc4c(cc3[nH]2)CN(C2CCN(C)CC2)C4=O)c(C)c1 [drawing 845] | 1 to 5 µM | 1 to 5 µM | 1 to 5 µM | 1 to 5 µM | 1 to 5 µM |
| 5 to 20 µM | 5 to 20 µM | 5 to 20 µM | Cc1ccc(OCC(=O)CNc2cc[nH]c(=O)c2-c2nc3cc4c(cc3[nH]2)CN(CCCN2CCCC2)C4=O)c(C)c1 [drawing 847] | 5 to 20 µM | 5 to 20 µM | 5 to 20 µM | 5 to 20 µM | 5 to 20 µM |

The next lines start with the compound.

| Structure (SMILES) | IC50 [4] | IC50 [6] | IC50 [7] | IC50 [1] | IC50 [2] | IC50 [3] | IC50 [5] | IC50 [8] |
| --- | --- | --- | --- | --- | --- | --- | --- | --- |
| CN1CCC(N2Cc3cc4[nH]c(-c5c(NCC(=O)COc6ccccc6Br)cc[nH]c5=O)nc4cc3C2=O)CC1 [drawing 848] | 1 to 5 µM | 5 to 20 µM | 1 to 5 µM | 0.5 to 1 µM | 1 to 5 µM | 1 to 5 µM | 1 to 5 µM | 1 to 5 µM |
| CCc1cc2c(cc1OCC(=O)CNc1cc[nH]c(=O)c1-c1nc3cc4c(cc3[nH]1)C(=O)N(C1CCN(C)CC1)C4)OCO2 [drawing 849] | 1 to 5 µM | 5 to 20 µM | 5 to 20 µM | 1 to 5 µM | 1 to 5 µM | 1 to 5 µM | 5 to 20 µM | 5 to 20 µM |
| COc1ccc(OCC(=O)CNc2cc[nH]c(=O)c2-c2nc3cc4c(cc3[nH]2)C(=O)N(C2CCN(C)CC2)C4)c(Cl)c1 [drawing 850] | 1 to 5 µM | 5 to 20 µM | 5 to 20 µM | 1 to 5 µM | 5 to 20 µM | 1 to 5 µM | 1 to 5 µM | 5 to 20 µM |
